Read-outs that look alike come from different tables or passages of the source.
Target: Lp(a) assembly in HepG2 cells overexpressing ApoA protein (Homo sapiens (Human), UniProt P08519)
Test: ELISA assay on screening Lp(a) assembly inhibition
Assay type: cell-based
Description: Test Example 1 and Methods of ELISA Assay on Screening Lp(a) Assembly Inhibition
• 1) Preheated the culture media, DPBS, and pancreatin in a 37° C. water bath in advance. • 2) Digested cells with pancreatin, transferred the cell suspension to a 15 mL centrifuge tube, and centrifuged at 1000 rpm for 5 min. • 3) Resuspended the cells with culture media and transferred the cell suspension to a new T75 cell culture flask. • 4) Cultured at 37° C. in a 5% CO2 incubator.
• 1) Seeded HepG2 cells overexpressing of ApoA protein into a 96-well plate at 100 μL per well and incubated overnight for attachment. • 2) Replaced with fresh culture media the next day, then added diluted compounds, and cultured the cell plate in a 5% CO2, 37° C. incubator for 24 h.
• 1) Added 10 μL of 1.5 M EACA to each well. • 2) Centrifuged at 1000 rpm for 1 min, and transferred 100 μL of cell culture supernatant to a pre-coated ELISA plate.
• 1) Added 100 μL of capture antibody to each well of a pre-coated ELISA plate and incubated overnight at 25° C. • 2) Added 300 μL of washing solution to each well and washed 5 times for 1 min each time. • 3) Added 100 μL of blocking solution to each well and incubated at 25° C. for 2 h. • 4) Added 300 μL of washing solution to each well and washed 5 times for 1 min each time. • 5) Added 100 μL of sample to each well and incubated at 25° C. for 1 h. • 6) Added 300 μL of washing solution to each well and washed 5 times for 1 min each time. • 7) Added 100 μL of detection antibody to each well and incubated at 25° C. for 1 h. • 8) Added 300 μL of washing solution to each well and washed 5 times for 1 min each time. • 9) Added 100 μL substrate solution (Color Reagent A: Color Reagent B, 1:1) to each well and incubated for 20 min at 25° C. in the dark. • 10) Added […] of stop solution to each well, gently blowed and sucked several times with the pipette tip, and read within 5 min.
[formula] • X: cpd concentration • Y: inhibition % • Top and Bottom: Plateaus in same units as Y • log IC50: same log units as X • HillSlope: Slope factor or Hill slope

[1] = HepG2 cells overexpressing ApoA protein, 24 h, ELISA of supernatant

Sequence of Lp(a) assembly in HepG2 cells overexpressing ApoA protein (P08519 20-2040): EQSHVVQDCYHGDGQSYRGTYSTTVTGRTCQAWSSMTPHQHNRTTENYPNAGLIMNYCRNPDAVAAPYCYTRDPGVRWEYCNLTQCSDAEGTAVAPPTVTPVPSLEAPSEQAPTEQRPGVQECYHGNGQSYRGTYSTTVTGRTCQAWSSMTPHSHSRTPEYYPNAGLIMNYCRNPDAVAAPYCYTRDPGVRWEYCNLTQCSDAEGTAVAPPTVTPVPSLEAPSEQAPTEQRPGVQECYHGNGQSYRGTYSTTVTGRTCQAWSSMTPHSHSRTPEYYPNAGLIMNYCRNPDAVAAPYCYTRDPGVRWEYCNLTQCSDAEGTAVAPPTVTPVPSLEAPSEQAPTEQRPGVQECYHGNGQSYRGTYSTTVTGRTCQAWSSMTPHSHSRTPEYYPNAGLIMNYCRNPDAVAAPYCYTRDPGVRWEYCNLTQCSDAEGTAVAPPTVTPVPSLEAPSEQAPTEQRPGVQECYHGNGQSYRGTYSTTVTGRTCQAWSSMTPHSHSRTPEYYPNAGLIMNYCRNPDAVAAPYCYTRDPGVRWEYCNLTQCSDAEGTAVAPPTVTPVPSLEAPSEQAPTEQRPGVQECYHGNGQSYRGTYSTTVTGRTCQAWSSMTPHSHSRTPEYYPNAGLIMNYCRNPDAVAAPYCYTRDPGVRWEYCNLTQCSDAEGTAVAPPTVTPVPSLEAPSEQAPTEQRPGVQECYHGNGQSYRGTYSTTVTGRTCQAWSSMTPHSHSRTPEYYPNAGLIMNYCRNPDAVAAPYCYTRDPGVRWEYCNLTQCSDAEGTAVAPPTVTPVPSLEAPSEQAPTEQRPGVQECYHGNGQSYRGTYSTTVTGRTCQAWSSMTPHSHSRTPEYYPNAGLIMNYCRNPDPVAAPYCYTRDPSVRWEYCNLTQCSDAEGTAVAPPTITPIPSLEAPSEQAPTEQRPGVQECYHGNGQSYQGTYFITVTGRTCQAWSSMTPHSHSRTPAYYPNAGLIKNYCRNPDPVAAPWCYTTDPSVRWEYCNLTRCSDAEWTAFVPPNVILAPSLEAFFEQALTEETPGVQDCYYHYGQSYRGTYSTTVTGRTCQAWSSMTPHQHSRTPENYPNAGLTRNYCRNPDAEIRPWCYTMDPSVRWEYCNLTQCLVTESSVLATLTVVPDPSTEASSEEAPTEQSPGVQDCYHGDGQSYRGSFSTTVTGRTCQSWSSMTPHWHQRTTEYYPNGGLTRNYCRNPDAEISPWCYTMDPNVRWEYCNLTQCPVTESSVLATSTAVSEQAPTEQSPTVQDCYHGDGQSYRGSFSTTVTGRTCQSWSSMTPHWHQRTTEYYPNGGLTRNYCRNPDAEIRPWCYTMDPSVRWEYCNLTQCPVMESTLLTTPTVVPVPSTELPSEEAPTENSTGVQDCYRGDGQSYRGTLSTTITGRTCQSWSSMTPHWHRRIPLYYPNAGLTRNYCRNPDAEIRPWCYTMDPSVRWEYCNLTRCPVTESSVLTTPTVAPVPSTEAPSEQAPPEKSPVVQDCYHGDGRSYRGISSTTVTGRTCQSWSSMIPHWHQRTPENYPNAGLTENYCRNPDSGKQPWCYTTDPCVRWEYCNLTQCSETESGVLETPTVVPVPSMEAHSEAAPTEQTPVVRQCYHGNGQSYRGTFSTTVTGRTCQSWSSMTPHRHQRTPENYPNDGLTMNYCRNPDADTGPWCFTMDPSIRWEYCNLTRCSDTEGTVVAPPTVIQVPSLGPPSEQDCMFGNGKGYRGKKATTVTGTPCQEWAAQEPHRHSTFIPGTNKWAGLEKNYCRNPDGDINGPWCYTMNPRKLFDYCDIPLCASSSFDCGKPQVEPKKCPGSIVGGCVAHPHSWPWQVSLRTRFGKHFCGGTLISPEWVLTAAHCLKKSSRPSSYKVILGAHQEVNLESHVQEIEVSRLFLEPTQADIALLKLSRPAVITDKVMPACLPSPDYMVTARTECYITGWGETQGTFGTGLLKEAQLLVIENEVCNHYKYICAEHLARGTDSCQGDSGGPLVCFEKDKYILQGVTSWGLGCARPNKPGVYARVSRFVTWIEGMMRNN

Compound	IC50 [1]	IC50
O=C(O)[C@@H](Cc1cc2cc(CN(Cc3ccc4sc(C[C@H](C(=O)O)[C@H]5CCNC5)cc4c3)Cc3ccc4sc(C[C@H](C(=O)O)[C@H]5CCNC5)cc4c3)ccc2s1)[C@H]1CCNC1 [Compound 104, (2S,2′S,2″S)-3,3′,3″-((nitrilotris(methylene))tris(benzo[b]thiophene-5,2-diyl))tris(2-((R)-pyrrolidin-3-yl)propanoic acid)]	1.04 nM	
O=C(O)[C@@H](Cc1cccc(CCN(CCOc2cccc(C[C@H](C(=O)O)[C@H]3CCNC3)c2)C(=O)c2cccc(C[C@H](C(=O)O)[C@H]3CCNC3)c2)c1)[C@H]1CCNC1 [Compound 106, (S)-3-(3-(2-(3-((S)-2-carboxy-2-((R)-pyrrolidin-3-yl)ethyl)-N-(2-(3-((S)-2-carboxy-2-((R)-pyrrolidin-3-yl)ethyl)phenoxy)ethyl)benzamido)ethyl)phenyl)-2-((R)-pyrrolidin-3-yl)propanoic acid]	1.84 nM	
O=C(O)[C@@H](Cc1cccc(CCN(CCc2cccc(C[C@H](C(=O)O)[C@H]3CCNC3)c2)C(=O)Cc2cccc(C[C@H](C(=O)O)[C@H]3CCNC3)c2)c1)[C@H]1CCNC1 [Compound 107, (2S,2′S)-3,3′-((((2-(3-((S)-2-carboxy-2-((R)-pyrrolidin-3-yl)ethyl)phenyl)acetyl)azanediyl)bis(ethane-2,1-diyl))bis(3,1-phenylene))bis(2-((R)-pyrrolidin-3-yl)propanoic acid)]	1.66 nM	
O=C(O)[C@@H](Cc1cccc(CCN(CCc2cccc(C[C@H](C(=O)O)[C@H]3CCNC3)c2)C(=O)c2cccc(C[C@H](C(=O)O)[C@H]3CCNC3)c2)c1)[C@H]1CCNC1 [Compound 108, (2S,2′S)-3,3′-((((3-((S)-2-carboxy-2-((R)-pyrrolidin-3-yl)ethyl)benzoyl)azanediyl)bis(ethane-2,1-diyl))bis(3,1-phenylene))bis(2-((R)-pyrrolidin-3-yl)propanoic acid)]	1.16 nM	
O=C(CN(CCOc1cccc(C[C@H](C(=O)O)[C@H]2CCNC2)c1)CCOc1cccc(C[C@H](C(=O)O)[C@H]2CCNC2)c1)c1cccc(C[C@H](C(=O)O)[C@H]2CCNC2)c1 [Compound 112, (2S,2′S)-3,3′-(((((2-(3-((S)-2-carboxy-2-((R)-pyrrolidin-3-yl)ethyl)phenyl)-2-oxoethyl)azanediyl)bis(ethane-2,1-diyl))bis(oxy))bis(3,1-phenylene))bis(2-((R)-pyrrolidin-3-yl)propanoic acid)]	3.4 nM	
O=C(O)[C@@H](Cc1cccc(CN2CCN(Cc3cccc(C[C@H](C(=O)O)[C@H]4CCNC4)c3)CC2)c1)[C@H]1CCNC1 [Compound 117, (2S,2′S)-3,3′-((piperazine-1,4-diylbis(methylene))bis(3,1-phenylene))bis(2-((R)-pyrrolidin-3-yl)propanoic acid)]	2.58 nM	
O=C(O)[C@@H](Cc1ncc(CN(Cc2cnc(C[C@H](C(=O)O)[C@H]3CCNC3)s2)Cc2cnc(C[C@H](C(=O)O)[C@H]3CCNC3)s2)s1)[C@H]1CCNC1 [Compound 121, (2S,2′S,2″S)-3,3′,3″-((nitrilotris(methylene))tris(thiazole-5,2-diyl))tris(2-((R)-pyrrolidin-3-yl)propanoic acid)]		1.53 nM
O=C(O)[C@@H](Cc1cccc(COc2cc(OCc3cccc(C[C@H](C(=O)O)[C@H]4CCNC4)c3)cc(OCc3cccc(C[C@H](C(=O)O)[C@H]4CCNC4)c3)c2)c1)[C@H]1CCNC1 [Compound 122, (2S,2′S,2″S)-3,3′,3″-(((benzene-1,3,5-triyltris(oxy))tris(methylene))tris(benzene-3,1-diyl))tris(2-((R)-pyrrolidin-3-yl)propanoic acid)]	1.87 nM	
O=C(O)[C@@H](Cc1cccc(CN(Cc2cccc(C[C@H](C(=O)O)[C@H]3CCNC3)c2)Cc2ccc3oc(C[C@H](C(=O)O)[C@H]4CCNC4)cc3c2)c1)[C@H]1CCNC1 [Compound 126, (2S,2′S)-3,3′-(((((2-((S)-2-carboxy-2-((R)-pyrrolidin-3-yl)ethyl)benzofuran-5-yl)methyl)azanediyl)bis(methylene))bis(3,1-phenylene))bis(2-((R)-pyrrolidin-3-yl)propanoic acid)]	1.26 nM	
O=C(O)[C@@H](Cc1csc2ccc(CN(Cc3ccc4scc(C[C@H](C(=O)O)[C@H]5CCNC5)c4c3)Cc3ccc4scc(C[C@H](C(=O)O)[C@H]5CCNC5)c4c3)cc12)[C@H]1CCNC1 [Compound 128, (2S,2′S,2″S)-3,3′,3″-((nitrilotris(methylene))tris(benzo[b]thiophene-5,3-diyl))tris(2-((R)-pyrrolidin-3-yl)propanoic acid)]	1.34 nM	
O=C(CN(Cc1cccc(C[C@H](C(=O)O)[C@H]2CCNC2)c1)Cc1cccc(C[C@H](C(=O)O)[C@H]2CCNC2)c1)c1cccc(C[C@H](C(=O)O)[C@H]2CCNC2)c1 [Compound 130, (2S,2′S)-3,3′-((((2-(3-((S)-2-carboxy-2-((R)-pyrrolidin-3-yl)ethyl)phenyl)-2-oxoethyl)azanediyl)bis(methylene))bis(3,1-phenylene))bis(2-((R)-pyrrolidin-3-yl)propanoic acid)]	1.45 nM	
O=C(O)[C@@H](Cc1cccc(COCC2CN(Cc3cccc(C[C@H](C(=O)O)[C@H]4CCNC4)c3)CCN2Cc2cccc(C[C@H](C(=O)O)[C@H]3CCNC3)c2)c1)[C@H]1CCNC1 (stereo partly drawn) [Compound 132, (2S,2′S)-3,3′-(((2-(((3-((S)-2-carboxy-2-((R)-pyrrolidin-3-yl)ethyl)benzyl)oxy)methyl)piperazine-1,4-diyl)bis(methylene))bis(3,1-phenylene))bis(2-((R)-pyrrolidin-3-yl)propanoic acid)]	0.88 nM	
Cn1c(C[C@H](C(=O)O)[C@H]2CCNC2)nc2ccc(CN(Cc3ccc4nc(C[C@H](C(=O)O)[C@H]5CCNC5)n(C)c4c3)Cc3ccc4nc(C[C@H](C(=O)O)[C@H]5CCNC5)n(C)c4c3)cc21 [Compound 133, (2S,2′S,2″S)-3,3′,3″-((nitrilotris(methylene))tris(1-methyl-1H-benzo[d]imidazole-6,2-diyl))tris(2-((R)-pyrrolidin-3-yl)propanoic acid)]	0.94 nM	
O=C(O)[C@@H](Cc1cccc(CN(CCOc2cccc(C[C@H](C(=O)O)[C@H]3CCNC3)c2)C(=O)CNc2cccc(C[C@H](C(=O)O)[C@H]3CCNC3)c2)c1)[C@H]1CCNC1 [Compound 134, (S)-3-(3-((2-((3-((S)-2-carboxy-2-((R)-pyrrolidin-3-yl)ethyl)benzyl)(2-(3-((S)-2-carboxy-2-((R)-pyrrolidin-3-yl)ethyl)phenoxy)ethyl)amino)-2-oxoethyl)amino)phenyl)-2-((R)-pyrrolidin-3-yl)propanoic acid]	0.85 nM	
O=C(O)[C@@H](Cc1cccc(CN(CCOc2cccc(C[C@H](C(=O)O)[C@H]3CCNC3)c2)C(=O)COc2cccc(C[C@H](C(=O)O)[C@H]3CCNC3)c2)c1)[C@H]1CCNC1 [Compound 135, (S)-3-(3-(2-((3-((S)-2-carboxy-2-((R)-pyrrolidin-3-yl)ethyl)benzyl)(2-(3-((S)-2-carboxy-2-((R)-pyrrolidin-3-yl)ethyl)phenoxy)ethyl)amino)-2-oxoethoxy)phenyl)-2-((R)-pyrrolidin-3-yl)propanoic acid]	0.71 nM	
O=C(O)[C@@H](Cc1csc(CN(Cc2cc(C[C@H](C(=O)O)[C@H]3CCNC3)cs2)Cc2cc(C[C@H](C(=O)O)[C@H]3CCNC3)cs2)c1)[C@H]1CCNC1 [Compound 137, (2S,2′S,2″S)-3,3′,3″-((nitrilotris(methylene))tris(thiophene-5,3-diyl))tris(2-((R)-pyrrolidin-3-yl)propanoic acid)]	1.08 nM	
